Assay results reported in patent publication US9832995B2, “Microbial composition” (Rohm and Haas Company, priority 2011, dated 2017).
“And” between values parts separate entries of the source, which are not always exact repeats. Identical values can stand only once.

Assays:
[1] = test system: Escherichia coli (E. coli - ATCC #10536); experiment: Synergy test: high resolution MBC microtiter plate assay, 15 seconds contact, phosphate buffer containing 35% dipropylene glycol; assay type: cell-based; details: E. coli 10536; for SI (Synergy Index = Qa/QA + Qb/QB): for Qa and Qb, less than one = synergy; for MBC of the component acting alone (QA or QB; Qa with Qb = 0, or Qb with Qa = 0): complete kill in 15 seconds, phosphate buffer with 35% DPG
Excerpt: The concentrations and ratios may also vary under different test conditions or with different test methods.
One measure of synergy is the industrially accepted method described by Kull, F. C.; Eisman, P. C.; Sylwestrowicz, H. D. and Mayer, R. L., in Applied Microbiology 9:538-541 (1961), using the ratio determined by the formula: Qa/QA+Qb/QB=Synergy Index (“SI”) wherein: • QA=concentration of compound A (first component) in percent, acting alone, which produced an end point (MBC of Compound A). • Qa=concentration of compound A in percent, in the mixture, which produced an end point. • QB=concentration of compound B (second component) in percent, acting alone, which produced an end point (MBC of Compound B). • Qb=concentration of compound B in percent, in the mixture, which produced an end point.
When the sum Qa/QA and Qb/QB is greater than one, antagonism is indicated. […] The lower the SI, the greater is the synergy shown by that particular mixture. The minimum biocidal concentration (MBC) of a microbicide is the lowest concentration tested under a specific set of conditions that provides complete kill of the tested microorganisms.
Synergy tests were conducted using standard microliter plate assays with phosphate buffer containing 35% dipropylene glycol (DPG). In this method, a wide range of combinations of chemicals was tested by conducting high resolution MBC assays of Component (A) in the presence of various concentrations of Component (B). High resolution MBCs were determined by adding varying amounts of microbicide to one column of a microliter plate and doing subsequent […] dilutions using an automated liquid handling system to obtain a series of closely spaced endpoints. The MBC plate was inoculated one column at a time with the test microorganism. An aliquot of the inoculated well was transferred at 15 seconds to a plate containing a neutralising agent (D/E Neutralising Broth), mixed and held for 5 minutes before being transferred to a growth plate-containing trypticase soy broth (TSB). The TSB plate was incubated at 37° C. and read for the presence/absence of growth at 24 hours. The lowest level tested that provided complete kill (as evidenced by no growth in the microtitre plate) of the test organisms in 15 seconds is the minimum biocidal concentration (MBC).
The synergy of the combinations of the present invention was determined against a bacterium, Escherichia coli (E. coli—ATCC #10536), at a concentration of approximately 1×10^8 bacteria per mL. This microorganism is representative of natural contaminants in many consumer and industrial applications.

[2] = test system: Escherichia coli (E. coli - ATCC #10536); experiment: Automated assessment of efficacy in model surfactant solution (2.85% sodium cocoyl glycinate + 1.85% sodium lauroamphoacetate, pH 10), 15 seconds exposure; assay type: cell-based; details: for MBC (% w/v) / MBC: 2.85% sodium cocoyl glycinate + 1.85% sodium lauroamphoacetate solution at pH 10, E. coli, component alone; for No. of replicates showing growth (out of 4) / ΔOD 450 nm = OD450 (time = 16 hours) − OD450 (time zero), Mean / ΔOD 590 nm = OD590 (time = 16 hours) − OD590 (time zero), Mean: model surfactant solution, pH 10, 15 s exposure; for MBC: Escherichia coli, ATCC10536, 15 s
Procedure: In these examples, the efficacy of combinations of actives were tested in a surfactant cleansing formulation comprising 2.85% sodium cocoyl glycinate and 1.85% sodium, lauroamphoacetate.
This corresponds to a 50% in use dilution with water of a neat formulation containing 5.7% cocoyl glycinate and 3.7% sodium lauroamphoacetate during hand washing.
Solutions were prepared such that the concentrations of the surfactant components and test actives were 1.1× the final desired concentration in order to allow for dilution with the bacterial inoculum in the test. The solutions were manually adjusted to pH 10.0 by dropwise addition of sodium hydroxide solution, as measured with a pH meter at ambient temperature.
The efficacy of the combinations of the present invention was determined against Escherichia coli (E. coli—ATCC #10536), at a concentration of approximately 1×10^8 bacteria per mL.
Tests were conducted using standard microliter plate assays using an automated liquid handling system. 270 μl of the surfactant test solution was pipetted into each well of the microtitre plate and 30 μl of the bacterial suspension was then added. After exactly 15 seconds of bacterial exposure, a 30 μl volume of bacterial cells was withdrawn and transferred to 270 μl of D/E quench solution. After 5 minutes in the D/E quench, the optical density (OD) was measured for each plate in turn at two specific wavelengths (450 nm and 590 nm). These provide a dual check of antimicrobial, activity, as the OD450 reading is specific for the yellow colour of D/E quench when bacterial growth is observed, whereas OD590 is specific for the initial purple colour of the D/E quench which is retained if no bacterial growth is observed. After the time zero OD measurements, plates were then incubated at 37° C. overnight (16 hours) before repeating the OD measurements, Delta OD values were calculated by subtracting […] the initial value at time zero. Bacterial growth is observed as an increase in OD450 and a decrease in ΔOD590. To identify antibacterially efficacious systems (those preventing appreciable bacterial growth after incubation), the following threshold changes in OD readings have been adopted: if (1). OD450 increases by less than 0.2 absorbance unit on incubation and (2). OD590 decreases by less than 0.35 unit on incubation. Conversely, where OD450 increases by more than 0.2 AU and OD590 decreases by more than 0.35 unit after incubation, corresponding to a colour shift from purple to yellow, the test system allows bacterial growth and is not deemed efficacious. Four replicate measurements in the same plate have been made for each test system. The number of replicate wells showing either bacterial growth or no growth is also readily assessed by eye by following the colour change.

S. aureus 6538 = experiment: Antimicrobial efficacy of actives against S. aureus in water; assay type: cell-based, Staphylococcus aureus
[3] = single active alone at 0.1% w/v
[4] = single active alone at 0.2% w/v
[5] = single active alone at 0.5% w/v
[6] = single active alone at 0.175% w/v

Oc1ccccc1C1CCCC1 [2-cyclopentylphenol]
SI (Synergy Index = Qa/QA + Qb/QB) [1]: 1.00

Oc1ccccc1Cc1ccccc1 [2-hydroxydiphenylmethane]
MBC (% w/v) [2]: >0.2 % w/v
No. of replicates showing growth (out of 4) [2, 3]: 4
ΔOD 450 nm = OD450 (time = 16 hours) − OD450 (time zero), Mean [2, 3]: −0.51
ΔOD 590 nm = OD590 (time = 16 hours) − OD590 (time zero), Mean [2, 3]: 0.62
No. of replicates showing growth (out of 4) [2, 4]: 4
ΔOD 450 nm = OD450 (time = 16 hours) − OD450 (time zero), Mean [2, 4]: −0.51
ΔOD 590 nm = OD590 (time = 16 hours) − OD590 (time zero), Mean [2, 4]: 0.63
No. of replicates showing growth (out of 4) ([2]; single active alone at […] w/v): 4
ΔOD 450 nm = OD450 (time = 16 hours) − OD450 (time zero), Mean ([2]; single active alone at […] w/v): −0.49
ΔOD 590 nm = OD590 (time = 16 hours) − OD590 (time zero), Mean ([2]; single active alone at […] w/v): 0.64
MBC of the component acting alone (QA or QB; Qa with Qb = 0, or Qb with Qa = 0) [1]: 0.8 weight % and 0.6 weight % and 1.0 weight % and 0.5 weight %
SI (Synergy Index = Qa/QA + Qb/QB) [1]: 1.00

C=C(C)C1CC=C(C)C(O)C1 (centres unmarked) [2-methyl-5-(prop-1-en-2-yl)cyclohex-2-enol]
No. of replicates showing growth (out of 4) [2, 5]: 0
ΔOD 450 nm = OD450 (time = 16 hours) − OD450 (time zero), Mean [2, 5]: 0.23
ΔOD 590 nm = OD590 (time = 16 hours) − OD590 (time zero), Mean [2, 5]: 0.20
No. of replicates showing growth (out of 4) ([2]; single active alone at […] w/v): 4
SI (Synergy Index = Qa/QA + Qb/QB) [1]: 1.0
Log Reduction (S. aureus 6538; […] carveol): 0.08

C=C(C)C1CCC(C)C(O)C1 (centres unmarked) [2-methyl-5-(prop-1-en-2-yl)cyclohexanol]
No. of replicates showing growth (out of 4) [2, 4]: 4
ΔOD 450 nm = OD450 (time = 16 hours) − OD450 (time zero), Mean [2, 4]: −0.49
ΔOD 590 nm = OD590 (time = 16 hours) − OD590 (time zero), Mean [2, 4]: 0.63
No. of replicates showing growth (out of 4) ([2]; single active alone at […] w/v): 4
ΔOD 450 nm = OD450 (time = 16 hours) − OD450 (time zero), Mean ([2]; single active alone at […] w/v): −0.43
ΔOD 590 nm = OD590 (time = 16 hours) − OD590 (time zero), Mean ([2]; single active alone at […] w/v): 0.66
SI (Synergy Index = Qa/QA + Qb/QB) [1]: 1.00

Cc1ccc(C(C)C)c(O)c1O [3-isopropyl-6-methylbenzene-1,2-diol]
MBC [2]: > 2000 µg/mL

Cc1cc(O)c(C(C)C)cc1Cl [4-chloro-2-isopropyl-5-methylphenol, reference compound]
No. of replicates showing growth (out of 4) [2, 6]: 4
ΔOD 450 nm = OD450 (time = 16 hours) − OD450 (time zero), Mean [2, 6]: −0.49
ΔOD 590 nm = OD590 (time = 16 hours) − OD590 (time zero), Mean [2, 6]: 0.58
No. of replicates showing growth (out of 4) [2, 4]: 4
ΔOD 450 nm = OD450 (time = 16 hours) − OD450 (time zero), Mean [2, 4]: −0.51
ΔOD 590 nm = OD590 (time = 16 hours) − OD590 (time zero), Mean [2, 4]: 0.60
No. of replicates showing growth (out of 4) ([2]; single active alone at […] w/v): 4
ΔOD 450 nm = OD450 (time = 16 hours) − OD450 (time zero), Mean ([2]; single active alone at […] w/v): −0.49
ΔOD 590 nm = OD590 (time = 16 hours) − OD590 (time zero), Mean ([2]; single active alone at […] w/v): 0.59

Oc1ccc(C2CCCC2)cc1 [4-cyclopentylphenol]
SI (Synergy Index = Qa/QA + Qb/QB) [1]: 1.00

Oc1ccc(Cc2ccccc2)cc1 [4-hydroxydiphenylmethane]
MBC (% w/v) [2]: >0.2 % w/v
No. of replicates showing growth (out of 4) [2, 3]: 4
ΔOD 450 nm = OD450 (time = 16 hours) − OD450 (time zero), Mean [2, 3]: −0.58
ΔOD 590 nm = OD590 (time = 16 hours) − OD590 (time zero), Mean [2, 3]: 0.52
No. of replicates showing growth (out of 4) [2, 4]: 4
ΔOD 450 nm = OD450 (time = 16 hours) − OD450 (time zero), Mean [2, 4]: −0.52
ΔOD 590 nm = OD590 (time = 16 hours) − OD590 (time zero), Mean [2, 4]: 0.61
No. of replicates showing growth (out of 4) ([2]; single active alone at […] w/v): 4
ΔOD 450 nm = OD450 (time = 16 hours) − OD450 (time zero), Mean ([2]; single active alone at […] w/v): −0.55
ΔOD 590 nm = OD590 (time = 16 hours) − OD590 (time zero), Mean ([2]; single active alone at […] w/v): 0.54
MBC of the component acting alone (QA or QB; Qa with Qb = 0, or Qb with Qa = 0) [1]: 1.0 weight % and 0.6 weight %
SI (Synergy Index = Qa/QA + Qb/QB) [1]: 1.00

CC(C)(C)c1ccc(O)c(O)c1 [4-tert-butylbenzene-1,2-diol]
MBC [2]: > 2000 µg/mL

Oc1cccc2c1CCCC2 [5,6,7,8-tetrahydronaphthalen-1-ol]
MBC of the component acting alone (QA or QB; Qa with Qb = 0, or Qb with Qa = 0) [1]: 0.6 weight %

C=C(C)[C@@H]1CC[C@@H](C)C[C@H]1O [(1R,2S,5R)-5-methyl-2-(prop-1-en-2-yl)cyclohexanol]
SI (Synergy Index = Qa/QA + Qb/QB) [1]: 1.00

C=C(C)C1CCC(C)CC1O (centres unmarked) [Isopulegol, 5-methyl-2-(prop-1-en-2-yl)cyclohexanol]
ΔOD 450 nm = OD450 (time = 16 hours) − OD450 (time zero), Mean [2, 5]: −0.09
No. of replicates showing growth (out of 4) ([2]; single active alone at […] w/v): 4
ΔOD 590 nm = OD590 (time = 16 hours) − OD590 (time zero), Mean ([2]; single active alone at […] w/v): 0.64

cyclopentyl phenol
Log Reduction (S. aureus 6538; 0.05% cyclopentyl phenol): 1.9
